# From patent US20090233938A1, “Thiazole derivatives as a2b antagonists” (priority 2004, published 2009)
# Target: T1, human adenosine A2b receptor (Homo sapiens, UniProt P29275)
# T1 construct: expressed in transfected cells; host or cells: CHO cells co-transfected with reporter plasmid pCRE-LUCI and pA2bRCV
# T1 sequence (P29275 1-332): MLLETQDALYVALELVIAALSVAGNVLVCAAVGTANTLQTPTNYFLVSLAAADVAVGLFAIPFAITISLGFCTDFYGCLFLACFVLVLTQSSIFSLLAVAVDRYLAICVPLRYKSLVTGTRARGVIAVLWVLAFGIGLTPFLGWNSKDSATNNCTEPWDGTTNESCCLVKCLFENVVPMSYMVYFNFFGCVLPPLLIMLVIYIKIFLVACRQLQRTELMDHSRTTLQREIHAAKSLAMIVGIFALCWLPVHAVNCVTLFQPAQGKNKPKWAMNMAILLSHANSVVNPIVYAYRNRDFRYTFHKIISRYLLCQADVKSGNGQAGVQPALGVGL
# Assay: Adenosine A2b receptor reporter gene assay (luciferase, CHO-A2b cells, NECA agonist)
# Assay type: cell-based
# Settings: CHO cells with pCRE-LUCI and human A2b receptor; antagonist at 100 nM or 1 μM; shift of NECA concentration-response curve; KB=[antagonist]/(concentration ratio−1)
# Method: Adenosine A2b Receptor Reporter Gene Assay a) Culturing of Chinese Hamster Ovary (CHO) A2b Cell Line
# CHO cells transfected with a Luciferase-expressing reporter plasmid (pCRE-LUCI) and with a plasmid carrying the human adenosine A2b receptor structural gene (pA2bRCV) are routinely cultured in Dulbecco's Modified Eagle Medium (DMEM)—supplemented with 10% v/v fetal calf serum (FCS), 2 mM L-glutamine, 0.4 mg/ml L-proline, 1 nM sodium selenite, 0.5 mg/ml Hygromycin B and 1 mg/ml Geneticin—at 37° C., 5% CO2 and 100% humidity. The cells are left to grow to confluence for 4-5 days. The cells obtained are passaged using trypsin/EDTA and split at a ratio of 1 in 5. […]
# b) Preparation of Cells for Assay
# Prior to the assay, the CHO-A2b cells are plated onto white 96-well View Plate tissue culture plates (Packard) at a density of 50,000 cells per well in 50 μl of DMEM, and the plates are incubated at 37° C., 5% CO2 and 100% humidity. […]
# c) Preparation of Reference and Test Compounds
# 10 mM solutions of the reference compound, Xanthine Amine Cogener (XAC), and the test compound in dimethyl sulfoxide (DMSO) are prepared. The solutions are further diluted with DMSO to 100 μM, then diluted to 10 μM, and finally to 250 nM or 2.5 μM with Assay Buffer (DMEM Phenol Red-free tissue culture media supplemented with 10 μM Rolipram and 10 U/ml adenosine deaminase (ADA). The resulting solutions (40 μl) are added to the cells in the appropriate wells, the final concentration per well being 100 nM or 1 μM, and the plates are incubated at 37° C., 5% CO2 and 100% humidity. […]
# d) Luciferase Reporter Gene Assay
# 5′-N-ethylcarboxamidoadenosine (NECA), an adenosine A2b agonist, is prepared as a […] solution in DMSO and then diluted to 100 μM with Assay Buffer. This solution is serially diluted in Assay Buffer to give a series of 10 NECA concentrations from 100 to 0.01 μM. 10 μl portions of the resulting NECA solutions are added to the mixtures of CHO-A2b cells and reference or test compound solutions prepared as described above (preincubated for 30 minutes), final concentrations ranging from […] per well. The cells are incubated at 37° C., 5% CO2 and 100% humidity for 3 hours to induce release of cAMP, which then binds to cAMP binding protein (CBP) and the resulting complex interacts with the reporter plasmid to express Luciferase. 100 μl of Steady-Glo, a Luciferase assay substrate from Promega, is added to all wells to lyse the cells and generate luminescence in proportion to the amount of Lucifrease produced. The plates are left for a minimum of 5 minutes before being read on the luminescence program of a Topcount NXT microplate scintillation counter (ex Packard). Concentration—response curves are plotted from the luminescence data using Activity base software and KB values for the antagonists under test are calculated from the shifts of the curve at a particular concentration (KB=[antagonist]/(concentration ratio−1)
row,Compound,Kb [nM]
1,CN(C)c1cc(-c2sc(Nc3cccc(F)c3)nc2-c2cccc(C#N)c2)cnn1 [Example 16],50
2,Cc1ccnc(Nc2nc(-c3cccc(C#N)c3)c(-c3ccncn3)s2)c1 [Example 4],38
3,N#Cc1cccc(Nc2nc(-c3cccc(C#N)c3)c(-c3ccncn3)s2)c1 [Example 6],29
4,"N#Cc1cccc(-c2nc(Nc3cnccn3)sc2-c2ccncn2)c1 [Example 12, 3-[2-(Pyrazin-2-ylamino)-5-pyrimidin-4-yl-thiazol-4-yl]-benzonitrile]",2
5,N#Cc1cccc(-c2nc(Nc3ccccn3)sc2-c2ccncn2)c1 [Example 9],6

# Test system: not given
# Assay: not given
# Settings: not given
row,Compound,melting point [°C]
1,"COc1cccc(C(=O)Nc2nc(-c3cccc(C#N)c3)c(-c3ccncn3)s2)c1 [Example 11, N-[4-(3-Cyano-phenyl)-5-pyrimidin-4-yl-thiazol-2-yl]-3-methoxy-benzamide]",255 to 256
2,"N#Cc1cccc(-c2nc(Nc3cnccn3)sc2-c2ccncn2)c1 [Example 12, 3-[2-(Pyrazin-2-ylamino)-5-pyrimidin-4-yl-thiazol-4-yl]-benzonitrile]",> 280
3,"N#Cc1cccc(-c2nc(Nc3ccc(C(=O)O)cc3)sc2-c2ccnnc2)c1 [Example 15, 4-[4-(3-Cyano-phenyl)-5-pyridazin-4-yl-thiazol-2-ylamino]-benzoic acid]",> 275
